Reference: patent US8466149B2, “6-substituted sulfonyl azabicyclo[3.2.1]octanes useful to inhibit 11β-hydroxysteroid dehydrogenase type-I” (Merck Sharp & Dohme Corp., priority 2007, dated 2013)

molecular target: Mouse 11β-HSD-1 (Mus musculus, UniProt P50172); experiment: In vitro 11β-HSD1 activity assay, mouse enzyme; type: biochemical; conditions: not given
Description: (§1) Measurement of 11β-HSD1 activity
(§2) 11β-HSD1 enzymatic activity was measured in a 50 μl reaction containing 20 mM NaPO4 pH 7.5, 0.1 mM MgCl2, 3 mM NADPH (prepared fresh daily), 125 nM ^3H-cortisone (American Radiochemicals) and 0.5 μg membrane. The reaction was incubated at room temperature for 1 hr before it was stopped by addition of […] containing 20 mM NaPO4 pH 7.5, 30 μM 18β-glycyrrhetinic acid, 1 μg/ml monoclonal anti-cortisol antibody (Biosource) and 2 mg/ml anti-mouse antibody coated scintillation proximity assay (SPA) beads (Amersham Bioscience). The mixture was incubated at room temperature for 2 hrs with vigorous shaking and analyzed on TopCount scintillation counter.

Chain of Mouse 11β-HSD-1 (P50172 whole entry): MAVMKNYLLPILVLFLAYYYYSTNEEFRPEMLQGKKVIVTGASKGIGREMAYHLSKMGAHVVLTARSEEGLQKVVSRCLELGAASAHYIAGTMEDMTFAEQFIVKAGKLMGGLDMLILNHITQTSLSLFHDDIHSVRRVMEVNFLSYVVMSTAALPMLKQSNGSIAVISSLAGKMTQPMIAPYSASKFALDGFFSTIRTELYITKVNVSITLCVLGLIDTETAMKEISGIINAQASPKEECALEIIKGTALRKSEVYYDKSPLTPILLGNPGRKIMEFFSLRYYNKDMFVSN

Row | SMILES | IC50
1 | CC1(C)CC2CC(C)(CN2S(=O)(=O)c2ccc(C(C)(C)C)cc2)C1 (stereo not drawn) [Compound No. 1] | 71 nM
2 | Cc1ccccc1S(=O)(=O)N1CC2(C)CC1CC(C)(C)C2 (stereo not drawn) [Compound No. 5] | 18200 nM
3 | CC(=O)c1ccc(S(=O)(=O)N2CC3(C)CC2CC(C)(C)C3)cc1 (stereo not drawn) [Compound No. 16] | 732 nM
4 | CCC(C)(C)c1ccc(S(=O)(=O)N2CC3(C)CC2CC(C)(C)C3)cc1 (stereo not drawn) [Compound No. 23] | 19 nM
5 | CC1(C)CC2CC(C)(CN2S(=O)(=O)c2ccc(Cl)c3nonc23)C1 (stereo not drawn) [compound 3] | 1870 nM
6 | CC1(C)CC2CC(C)(CN2S(=O)(=O)Cc2ccccc2)C1 (stereo not drawn) [compound 4] | 7930 nM
7 | COc1cccc(S(=O)(=O)N2CC3(C)CC2CC(C)(C)C3)c1 (stereo not drawn) [compound 10] | 3170 nM
8 | CC1(C)CC2CC(C)(CN2S(=O)(=O)c2ccccc2Cl)C1 (stereo not drawn) [compound 12] | 28200 nM
9 | CC(C)c1ccc(S(=O)(=O)N2CC3(C)CC2CC(C)(C)C3)cc1 (stereo not drawn) [compound 17] | 127 nM
10 | CC1(C)CC2CC(C)(CN2S(=O)(=O)c2ccccc2C#N)C1 (stereo not drawn) [compound 29] | 13300 nM
11 | COC(C)c1ccc(S(=O)(=O)N2CC3(C)CC2CC(C)(C)C3)cc1 (stereo not drawn) [compound 45] | 27 nM
12 | CCOC(C)c1ccc(S(=O)(=O)N2CC3(C)CC2CC(C)(C)C3)cc1 (stereo not drawn) [compound 46] | 87 nM
13 | CC1(C)CC2CC(C)(CN2S(=O)(=O)c2ccc(C(F)(F)F)cc2)C1 (stereo not drawn) [compound 48] | 686 nM
14 | COC(C)(C)c1ccc(S(=O)(=O)N2CC3CC(C)(C2)CC3(C)C)cc1 (stereo not drawn) [compound 49] | 11 nM
15 | CC1(C)CC2CC(C)(CN2S(=O)(=O)c2ccc(C(C)(C)O)cc2)C1 (stereo not drawn) [compound 50] | 43 nM
16 | CC1(C)CC2CC(C)(CN2S(=O)(=O)c2ccc(C3CCCCC3)cc2)C1 (stereo not drawn) [compound 61] | 165 nM
17 | CC(C)Oc1ccc(S(=O)(=O)N2CC3(C)CC2CC(C)(C)C3)cc1 (stereo not drawn) [compound 64] | 217 nM
18 | CCCCc1ccc(S(=O)(=O)N2CC3(C)CC2CC(C)(C)C3)cc1 (stereo not drawn) [compound 65] | 950 nM
19 | CCC(C)c1ccc(S(=O)(=O)N2CC3(C)CC2CC(C)(C)C3)cc1 (stereo not drawn) [compound 68] | 112 nM
20 | CCC(C)(O)c1ccc(S(=O)(=O)N2CC3(C)CC2CC(C)(C)C3)cc1 (stereo not drawn) [compound 69] | 68 nM

Results, then the compound that gave them:

Row | IC50 | SMILES
21 | 670 nM | Cc1ccc(S(=O)(=O)N2CC3(C)CC2CC(C)(C)C3)cc1 (stereo not drawn) [Compound No. 6]
22 | 420 nM | CCc1ccc(S(=O)(=O)N2CC3(C)CC2CC(C)(C)C3)cc1 (stereo not drawn) [compound 9]
23 | 2480 nM | CC1(C)CC2CC(C)(CN2S(=O)(=O)c2ccc(Cl)cc2)C1 (stereo not drawn) [compound 13]
24 | 364 nM | CC1(C)CC2CC(C)(CN2S(=O)(=O)c2ccc(-c3ccccc3)cc2)C1 (stereo not drawn) [compound 25]
25 | 3170 nM | CC1(C)CC2CC(C)(CN2S(=O)(=O)c2ccc(I)cc2)C1 (stereo not drawn) [compound 32]
26 | 67 nM | CC(O)c1ccc(S(=O)(=O)N2CC3(C)CC2CC(C)(C)C3)cc1 (stereo not drawn) [compound 44]
27 | 309 nM | CC1(C)CC2CC(C)(CN2S(=O)(=O)c2ccc(-c3cnco3)cc2)C1 (stereo not drawn) [compound 62]
28 | 305 nM | CC1(C)CC2CC(C)(CN2S(=O)(=O)c2ccc(-c3csnn3)cc2)C1 (stereo not drawn) [compound 63]
29 | 5940 nM | CC1(C)CC2CC(C)(CN2S(=O)(=O)c2ccc([N+](=O)[O-])cc2)C1 (stereo not drawn) [compound 75]
30 | 1820 nM | CC1(C)CC2CC(C)(CN2S(=O)(=O)c2ccc(C#N)cc2)C1 (stereo not drawn) [compound 76]

molecular target: T1, 11β-HSD-1 (Mus musculus, UniProt P50172); experiment: In vivo screen for inhibition of 11β-HSD-1 (mouse cortisone challenge, plasma cortisol); conditions: 30 mpk oral, lean male C57BI/6N mice, cortisone 1 mg/kg sc, plasma cortisol by ELISA
T1 construct: from tissue; host or cells: whole animal, C57Bl/6N mice
Description: In Vivo Screen for Inhibition of 11β-HSD-1
Lean male C57BI/6N mice were orally dosed with a solution of dexamethasone (0.5 mg/kg) and test agent or vehicle (20% HPβCD (10 ml/kg)). One hour later, cortisone was administered (1 mg/kg sc in sesame oil). One hour after cortisone administration, animals were euthanized for blood collection, and plasma cortisol levels were determined with a commercially available ELISA.

T1 sequence (P50172 whole entry): as above

Row | Mouse cort. challenge % I @ 30 mpk | SMILES
31 | 30% | CC1(C)CC2CC(C)(CN2S(=O)(=O)c2ccc(C(C)(C)C)cc2)C1 (stereo not drawn) [Compound No. 1]
32 | 26% | CCC(C)(C)c1ccc(S(=O)(=O)N2CC3(C)CC2CC(C)(C)C3)cc1 (stereo not drawn) [Compound No. 23]
33 | 63% | CC(O)c1ccc(S(=O)(=O)N2CC3(C)CC2CC(C)(C)C3)cc1 (stereo not drawn) [compound 44]
34 | 16% | COC(C)c1ccc(S(=O)(=O)N2CC3(C)CC2CC(C)(C)C3)cc1 (stereo not drawn) [compound 45]
35 | 19% | COC(C)(C)c1ccc(S(=O)(=O)N2CC3CC(C)(C2)CC3(C)C)cc1 (stereo not drawn) [compound 49]
36 | 43% | CC1(C)CC2CC(C)(CN2S(=O)(=O)c2ccc(C(C)(C)O)cc2)C1 (stereo not drawn) [compound 50]

molecular target: T2, Human 11β-HSD1 (Homo sapiens, UniProt P28845); experiment: In vitro 11β-HSD1 activity assay (SPA, 3H-cortisone, membranes); type: biochemical; conditions: human 11β-HSD1 membranes, 125 nM 3H-cortisone, read-out: Human 11β-HSD-1 IC50
T2 construct: myc (N); made in house; host or cells: Sf9 cells (baculovirus, Bac-to-Bac)
Description: In vitro 11β-HSD1 activity assay Preparation of 11β-HSD1 membranes
Human 11β-HSD1 with N-terminal myc tag was expressed in Sf9 cells using baculovirus Bac-to-Bac expression system (Invitrogen) according to manufacturer's instructions. Cells were harvested three days after infection and washed in PBS before frozen. To make membranes, the cells were resuspended in buffer A (20 mM Tris-HCl, pH7.4, 100 mM NaCl, 2 mM EDTA, 2 mM EGTA and Complete™ protease inhibitor tablets (Roche Molecular Biochemicals)), and lysed in a nitrogen bomb at 900 psi. The cell lysate was centrifuged at 600 g for 10 min to remove nuclei and large cell debris. The supernatant was centrifuged at 100,000 g for 1 hr. The membrane pellet was resuspended in buffer A, flash-frozen in liquid nitrogen and stored at −70° C. before use.
as §1, §2

T2 sequence (P28845 whole entry): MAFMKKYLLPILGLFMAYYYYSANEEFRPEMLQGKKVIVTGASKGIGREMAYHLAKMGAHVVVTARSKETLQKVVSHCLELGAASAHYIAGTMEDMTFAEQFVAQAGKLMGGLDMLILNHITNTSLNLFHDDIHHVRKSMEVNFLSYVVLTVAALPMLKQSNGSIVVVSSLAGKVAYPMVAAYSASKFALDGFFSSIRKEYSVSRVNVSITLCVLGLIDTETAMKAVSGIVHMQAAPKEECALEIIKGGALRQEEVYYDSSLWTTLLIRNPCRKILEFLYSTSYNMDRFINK

Row | SMILES | IC50
37 | CC1(C)CC2CC(C)(CN2S(=O)(=O)c2ccc(C(C)(C)C)cc2)C1 (stereo not drawn) [Compound No. 1] | 31 nM
38 | Cc1ccccc1S(=O)(=O)N1CC2(C)CC1CC(C)(C)C2 (stereo not drawn) [Compound No. 5] | 3010 nM
39 | CC(=O)c1ccc(S(=O)(=O)N2CC3(C)CC2CC(C)(C)C3)cc1 (stereo not drawn) [Compound No. 16] | 139 nM
40 | CCC(C)(C)c1ccc(S(=O)(=O)N2CC3(C)CC2CC(C)(C)C3)cc1 (stereo not drawn) [Compound No. 23] | 28 nM
41 | CC1(C)CC2CC(C)(CN2S(=O)(=O)c2ccc(Cl)c3nonc23)C1 (stereo not drawn) [compound 3] | 407 nM
42 | CC1(C)CC2CC(C)(CN2S(=O)(=O)Cc2ccccc2)C1 (stereo not drawn) [compound 4] | 3390 nM
43 | COc1cccc(S(=O)(=O)N2CC3(C)CC2CC(C)(C)C3)c1 (stereo not drawn) [compound 10] | 2510 nM
44 | CC1(C)CC2CC(C)(CN2S(=O)(=O)c2ccccc2Cl)C1 (stereo not drawn) [compound 12] | 1410 nM
45 | CC(C)c1ccc(S(=O)(=O)N2CC3(C)CC2CC(C)(C)C3)cc1 (stereo not drawn) [compound 17] | 67 nM
46 | CC1(C)CC2CC(C)(CN2S(=O)(=O)c2ccccc2C#N)C1 (stereo not drawn) [compound 29] | 5710 nM
47 | COC(C)c1ccc(S(=O)(=O)N2CC3(C)CC2CC(C)(C)C3)cc1 (stereo not drawn) [compound 45] | 19 nM
48 | CCOC(C)c1ccc(S(=O)(=O)N2CC3(C)CC2CC(C)(C)C3)cc1 (stereo not drawn) [compound 46] | 10 nM
49 | CC1(C)CC2CC(C)(CN2S(=O)(=O)c2ccc(C(F)(F)F)cc2)C1 (stereo not drawn) [compound 48] | 268 nM
50 | COC(C)(C)c1ccc(S(=O)(=O)N2CC3CC(C)(C2)CC3(C)C)cc1 (stereo not drawn) [compound 49] | 23 nM
51 | CC1(C)CC2CC(C)(CN2S(=O)(=O)c2ccc(C(C)(C)O)cc2)C1 (stereo not drawn) [compound 50] | 7 nM
52 | CC1(C)CC2CC(C)(CN2S(=O)(=O)c2ccc(C3CCCCC3)cc2)C1 (stereo not drawn) [compound 61] | 415 nM
53 | CC(C)Oc1ccc(S(=O)(=O)N2CC3(C)CC2CC(C)(C)C3)cc1 (stereo not drawn) [compound 64] | 340 nM
54 | CCCCc1ccc(S(=O)(=O)N2CC3(C)CC2CC(C)(C)C3)cc1 (stereo not drawn) [compound 65] | 372 nM
55 | CCC(C)c1ccc(S(=O)(=O)N2CC3(C)CC2CC(C)(C)C3)cc1 (stereo not drawn) [compound 68] | 55 nM
56 | CCC(C)(O)c1ccc(S(=O)(=O)N2CC3(C)CC2CC(C)(C)C3)cc1 (stereo not drawn) [compound 69] | 30 nM

Next, values leading:

Row | IC50 | SMILES
57 | 247 nM | Cc1ccc(S(=O)(=O)N2CC3(C)CC2CC(C)(C)C3)cc1 (stereo not drawn) [Compound No. 6]
58 | 190 nM | CCc1ccc(S(=O)(=O)N2CC3(C)CC2CC(C)(C)C3)cc1 (stereo not drawn) [compound 9]
59 | 407 nM | CC1(C)CC2CC(C)(CN2S(=O)(=O)c2ccc(Cl)cc2)C1 (stereo not drawn) [compound 13]
60 | 169 nM | CC1(C)CC2CC(C)(CN2S(=O)(=O)c2ccc(-c3ccccc3)cc2)C1 (stereo not drawn) [compound 25]
61 | 2510 nM | CC1(C)CC2CC(C)(CN2S(=O)(=O)c2ccc(I)cc2)C1 (stereo not drawn) [compound 32]
62 | 16 nM | CC(O)c1ccc(S(=O)(=O)N2CC3(C)CC2CC(C)(C)C3)cc1 (stereo not drawn) [compound 44]
63 | 96 nM | CC1(C)CC2CC(C)(CN2S(=O)(=O)c2ccc(-c3cnco3)cc2)C1 (stereo not drawn) [compound 62]
64 | 111 nM | CC1(C)CC2CC(C)(CN2S(=O)(=O)c2ccc(-c3csnn3)cc2)C1 (stereo not drawn) [compound 63]
65 | 126 nM | CC1(C)CC2CC(C)(CN2S(=O)(=O)c2ccc([N+](=O)[O-])cc2)C1 (stereo not drawn) [compound 75]
66 | 126 nM | CC1(C)CC2CC(C)(CN2S(=O)(=O)c2ccc(C#N)cc2)C1 (stereo not drawn) [compound 76]
